Assay results reported in patent US6921821B2, “Antagonists of melanin concentrating hormone receptor” (Abbott Laboratories, priority 2002, dated 2005).
Where a name gives a salt, the structure may show the parent alone.

target: T1, murine MCHR (Mus musculus, UniProt Q8JZL2); test: Assay for release of intracellular calcium (FLIPR, Fluo-4), inhibition of MCH-induced Ca++ flux; type: cell-based; settings: test compound at a dose of 10 μM, HEK293 cells expressing the murine MCHR, read-out: inhibition of MCH (MCH induced Ca++ flux / fluorescence)
T1 construct: expressed in transfected cells; host or cells: HEK293
In short: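 HEK293 cells expressing murine MCHR were loaded with Fluo-4AM (2.5 μM) and given compound (40 μM stock in 4% DMSO), with 3 min monitoring for agonism. They were then challenged with mouse MCH (12 nM as added) and FLIPR fluorescence followed 3 min more. % inhibition of MCH-induced Ca++ flux was calculated against baseline and no-compound signals.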

T1 sequence (Q8JZL2 whole entry): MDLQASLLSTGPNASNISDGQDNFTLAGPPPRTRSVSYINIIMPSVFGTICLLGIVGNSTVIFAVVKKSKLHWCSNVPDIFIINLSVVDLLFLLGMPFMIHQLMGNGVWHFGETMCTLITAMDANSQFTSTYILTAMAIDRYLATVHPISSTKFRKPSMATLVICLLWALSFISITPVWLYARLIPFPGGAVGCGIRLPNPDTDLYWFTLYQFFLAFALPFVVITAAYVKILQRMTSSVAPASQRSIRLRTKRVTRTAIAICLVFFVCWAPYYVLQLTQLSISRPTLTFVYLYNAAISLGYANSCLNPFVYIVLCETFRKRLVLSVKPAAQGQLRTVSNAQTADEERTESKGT

Inhibition at 10 µM, ≥ 50%:
CCn1ccc2cc(CN3CCC(Nc4cc(=O)oc5ccc(OC)cc45)CC3)ccc21 [II-33, 6-Methoxy-4-[N-ethylindole-5-ylmethyl-piperidin-4-ylamino]-chromen-2-one]
COc1ccc2oc(=O)cc(NC3CCN(Cc4ccc(C)cc4)CC3)c2c1 [II-34, 6-Methoxy-4-[1-(4-methyl-benzyl)-piperidin-4-ylamino]-chromen-2-one trifluoroacetate]
C=Cc1ccc2oc(=O)cc(NC3CCN(Cc4ccc5c(c4)OCO5)CC3)c2c1 [II-35, 4-(1-Benzo[1,3]dioxol-5-ylmethyl-piperidin-4-ylamino)-6-vinyl-chromen-2-one]
O=c1cc(NC2CCN(Cc3ccc4ccoc4c3)CC2)c2cc(Cl)ccc2o1 [II-36, 4-(1-Benzofuran-6-ylmethyl-piperidin-4-ylamino)-6-chloro-chromen-2-one]
COc1ccc2oc(=O)cc(NC3CCN(Cc4ccc(OC)c(C)c4)CC3)c2c1 [II-37, 6-Methoxy-4-[1-(4-methoxy-3-methyl-benzyl)-piperidin-4-ylamino]-chromen-2-one trifluoroacetate]
COc1ccc(CN2CCC(Nc3cc(=O)oc4ccc(OC)cc34)CC2)cc1 [II-39, 6-Methoxy-4-[1-(4-methoxy-benzyl)-piperidin-4-ylamino]-chromen-2-one trifluoroacetate]
O=c1cc(NC2CCN(Cc3ccc4ncccc4c3)CC2)c2cc(Cl)ccc2o1 [II-40, 6-Chloro-4-(1-quinolin-6-ylmethyl-piperidin-4-ylamino)-chromen-2-one]
O=c1cc(NC2CCN(Cc3ccc4c(c3)OCO4)CC2)c2cc(Cl)cc(Br)c2o1 [II-41, 4-(1-Benzo[1,3]dioxol-5-ylmethyl-piperidin-4-ylamino)-8-bromo-6-chloro-chromen-2-one]
CC(=O)Nc1c(NC2CCN(Cc3ccc4c(c3)OCO4)CC2)c2cc(Cl)ccc2oc1=O [II-42, N-[4-(1-Benzo[1,3]dioxol-5-ylmethyl-piperidin-4-ylamino)-6-chloro-2-oxo-2H-chromen-3-yl]-acetamide]
COc1ccc2oc(=O)cc(NC3CCN(Cc4ccc(OC(F)F)cc4)CC3)c2c1 [II-43, 4-[1-(4-Difluoromethoxy-benzyl)-piperidin-4-ylamino]-6-methoxy-chromen-2-one trifluoroacetate]
COc1ccc2oc(=O)cc(NC3CCN(Cc4ccc5ocnc5c4)CC3)c2c1 [II-44, 4-(1-Benzooxazol-5-ylmethyl-piperidin-4-ylamino)-6-methoxy-chromen-2-one]
C=Cc1ccc2oc(=O)cc(NC3CCN(Cc4ccc(C)c(C)c4)CC3)c2c1 [II-46, 4-{1-(3,4-Dimethyl-benzyl)-piperidin-4-ylamino}-6-vinyl-chromen-2-one]
COc1ccc2oc(=O)cc(NC3CCN(Cc4ccc(OCCCN5CCCCC5)c(F)c4)CC3)c2c1 [II-47, 4-{1-[3-Fluoro-4-(3-piperidin-1-yl-propoxy)-benzyl]-piperidin-4-ylamino}-6-methoxy-chromen-2-one; Double TFA Salt]
CC(=O)c1ccc(CN2CCC(Nc3cc(=O)oc4ccc(Cl)cc34)CC2)cc1 [II-48, 4-[1-(4-Acetyl-benzyl)-piperidin-4-ylamino]-6-chloro-chromen-2-one]
O=c1cc(NC2CCN(Cc3ccc(OCCCN4CCCCC4)cc3)CC2)c2cc(Cl)ccc2o1 [II-49, 6-Chloro-4-{1-[4-(3-piperidin-1-yl-propoxy)-benzyl]-piperidin-4-ylamino}-chromen-2-one; Double TFA Salt]
CCCCOc1ccc(CN2CCC(Nc3cc(=O)oc4ccc(OC)cc34)CC2)cc1 [II-50, 4-[1-(4-Butoxy-benzyl)-piperidin-4-ylamino]-6methoxy-chromen-2-one trifluoroacetate]
O=c1cc(NC2CCN(Cc3ccc4c(c3)OCCCO4)CC2)c2cc(Cl)ccc2o1 [II-51, 6-Chloro-4-[1-(3,4-dihydro-2H-benzo[b][1,4]dioxepin-7-ylmethyl)-piperidin-4-ylamino]-chromen-2-one]
COc1ccc2oc(=O)cc(NC3CCN(Cc4ccc5[nH]ccc5c4)CC3)c2c1 [II-54, 4-[1-(1H-Indol-5-ylmethyl)-piperidin-4-ylamino]-6-methoxy-chromen-2-one]
O=C(NCCN1CCCC1)c1ccc(CN2CCC(Nc3cc(=O)oc4ccc(Cl)cc34)CC2)cc1 [II-55, 4-[4-(6-Chloro-2-oxo-2H-chromen-4-ylamino)-piperidin-1-ylmethyl]-N-(2-pyrrolidin-1-yl-ethyl)-benzamide; Double TFA Salt]
C=Cc1ccc2oc(=O)cc(NC3CCN(Cc4ccc5c(c4)OCCO5)CC3)c2c1 [II-57, 4-{1-(2,3-Dihydrobenzo{1,4}dioxin-6-ylmethyl)-piperidin-4-ylamino}-6-vinyl-chromen-2-one]
COc1ccc2oc(=O)cc(NC3CCN(Cc4ccc(Cl)c(F)c4)CC3)c2c1 [II-58, 4-[1-(4-Chloro-3-fluoro-benzyl)-piperidin-4-ylamino]-6-methoxy-chromen-2-one trifluoroacetate]
O=c1cc(NC2CCN(Cc3ccc(Cl)cc3)CC2)c2cc(Cl)ccc2o1 [II-59, 6-Chloro-4-{1-(4-chloro-benzyl)-piperidin-4-ylamino}-chromen-2-one]
CC(c1ccc2c(c1)OCO2)N1CCC(Nc2cc(=O)oc3ccc(Cl)cc23)CC1 (stereo not drawn) [II-60, 4-[1-(1-Benzo[1,3]dioxol-5-yl-ethyl)-piperidin-4-ylamino]-6-chloro-chromen-2-one]
Cc1cc2cc(CN3CCC(Nc4cc(=O)oc5ccc(Cl)cc45)CC3)ccc2o1 [II-61, 6-Chloro-4-[1-(2-methyl-benzofuran-5-ylmethyl)-piperidin-4-ylamino]-chromen-2-one]
CCc1ccc2oc(=O)cc(NC3CCN(Cc4ccc5c(c4)OCO5)CC3)c2c1 [II-63, 4-(1-Benzo{1,3}dioxol-5-ylmethyl-piperidin-4-ylamino)-6-ethyl-chromen-2-one]
COc1ccc2oc(=O)cc(NC3CCN(Cc4ccc5c(c4)OCCO5)CC3)c2c1 [II-64, 4-[1-(2,3-Dihydro-benzo[1,4]dioxin-6-ylmethyl)-piperidin-4-ylamino]-6-methoxy-chromen-2-one trifluoroacetate]
COc1ccc2oc(=O)cc(NC3CCN(Cc4ccc(Br)cc4)CC3)c2c1 [II-65, 4-[1-(4-Bromo-benzyl)-piperidin-4-ylamino]-6-methoxy-chromen-2-one trifluoroacetate]
COc1ccc2oc(=O)cc(NC3CCN(Cc4cccc5ccccc45)CC3)c2c1 [II-66, 6-Methoxy-4-(1-naphthalen-1-ylmethyl-piperidin-4-ylamino)-chromen-2-one trifluoroacetate]
O=C(NCCN1CCCCC1)c1ccc(CN2CCC(Nc3cc(=O)oc4ccc(Cl)cc34)CC2)cc1 [II-67, 4-[4-(6-Chloro-2-oxo-2H-chromen-4-ylamino)-piperidin-1-ylmethyl]-N-(2-piperidin-1-yl-ethyl)-benzamide; Double TFA Salt]
COc1ccc2oc(=O)cc(NC3CCN(Cc4ccc5c(c4)OC(F)(F)O5)CC3)c2c1 [II-68, 4-[1-(2,2-Difluoro-benzo[1,3]dioxol-5-ylmethyl)-piperidin-4-ylamino]-6-methoxy-chromen-2-one trifluoroacetate]
COc1ccc2oc(=O)cc(NC3CCN(Cc4ccc(C(=O)NCCN5CCCCC5)cc4)CC3)c2c1 [II-69, 4-[4-(6-Methoxy-2-oxo-2H-chromen-4-ylamino)-piperidin-1-ylmethyl]-N-(2-piperidin-1-yl-ethyl)-benzamide; Double TFA Salt]
COc1ccc2oc(=O)cc(NC3CCN(Cc4ccc(OC)c(F)c4)CC3)c2c1 [II-70, 4-[1-(3-Fluoro-4-methoxy-benzyl)-piperidin-4-ylamino]-6-methoxy-chromen-2-one trifluoroacetate]
Cc1ccc(CN2CCC(Nc3cc(=O)oc4ccc(Cl)cc34)CC2)cc1C [II-71, 6-Chloro-4-[1-(3,4-dimethyl-benzyl)-piperidin-4-ylamino]-chromen-2-one]
O=c1cc(NC2CCN(Cc3ccc4cnccc4c3)CC2)c2cc(Cl)ccc2o1 [II-73, 6-Chloro-4-(1-isoquinolin-6-ylmethyl-piperidin-4-ylamino)-chromen-2-one]
CC(c1ccc(Cl)cc1)N1CCC(Nc2cc(=O)oc3ccc(Cl)cc23)CC1 (stereo not drawn) [II-74, 6-Chloro-4-{1-[1-(4-chloro-phenyl)-ethyl]-piperidin-4-ylamino}-chromen-2-one]
N#Cc1ccc2oc(=O)cc(NC3CCN(Cc4ccc5c(c4)OCO5)CC3)c2c1 [II-75, 4-(1-Benzo[1,3]dioxol-5-ylmethyl-piperidin-4-ylamino)-2-oxo-2H-chromene-6-carbonitrile]
COc1cccc(CN2CCC(Nc3cc(=O)oc4ccc(OC)cc34)CC2)c1 [II-76, 6-Methoxy-4-[1-(3-methoxy-benzyl)-piperidin-4-ylamino]-chromen-2-one trifluoroacetate]
O=c1cc(NC2CCN(Cc3ccc4c(c3)CCO4)CC2)c2cc(Cl)ccc2o1 [II-78, 6-Chloro-4-[1-(2,3-dihydro-benzofuran-5-ylmethyl)-piperidin-4-ylamino]-chromen-2-one]
COc1ccc2oc(=O)cc(NC3CCN(Cc4cccc(F)c4)CC3)c2c1 [II-79, 4-[1-(3-Fluoro-benzyl)-piperidin-4-ylamino]-6-methoxy-chromen-2-one trifluoroacetate]
